Values of other authors in patent publication US20050095286A1, “Extended release compositions” (Fabre Kramer Pharmaceuticals, Inc., priority 2003, published 2005).

Tests used:
[1] = background statement
5HT1a-receptors = molecular target: T1, 5HT1a-receptors (Homo sapiens, UniProt P08908); details: background statement
T1 sequence (P08908 1-422): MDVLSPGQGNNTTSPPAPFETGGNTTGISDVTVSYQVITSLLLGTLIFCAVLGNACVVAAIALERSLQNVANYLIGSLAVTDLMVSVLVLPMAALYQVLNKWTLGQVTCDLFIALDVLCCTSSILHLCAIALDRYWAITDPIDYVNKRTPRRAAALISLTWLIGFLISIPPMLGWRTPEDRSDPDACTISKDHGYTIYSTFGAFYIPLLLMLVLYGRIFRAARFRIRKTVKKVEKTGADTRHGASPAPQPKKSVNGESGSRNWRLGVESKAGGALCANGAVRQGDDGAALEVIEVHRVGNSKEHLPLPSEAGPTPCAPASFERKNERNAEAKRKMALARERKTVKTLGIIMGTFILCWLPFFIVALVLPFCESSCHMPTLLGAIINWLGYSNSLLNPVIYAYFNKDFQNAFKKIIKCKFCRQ

[2] = molecular target: D2-receptor binding sites (Homo sapiens, UniProt P14416); details: background statement, U.S. Pat. No. 5,010,078
Sequence of D2-receptor binding sites (P14416 whole entry): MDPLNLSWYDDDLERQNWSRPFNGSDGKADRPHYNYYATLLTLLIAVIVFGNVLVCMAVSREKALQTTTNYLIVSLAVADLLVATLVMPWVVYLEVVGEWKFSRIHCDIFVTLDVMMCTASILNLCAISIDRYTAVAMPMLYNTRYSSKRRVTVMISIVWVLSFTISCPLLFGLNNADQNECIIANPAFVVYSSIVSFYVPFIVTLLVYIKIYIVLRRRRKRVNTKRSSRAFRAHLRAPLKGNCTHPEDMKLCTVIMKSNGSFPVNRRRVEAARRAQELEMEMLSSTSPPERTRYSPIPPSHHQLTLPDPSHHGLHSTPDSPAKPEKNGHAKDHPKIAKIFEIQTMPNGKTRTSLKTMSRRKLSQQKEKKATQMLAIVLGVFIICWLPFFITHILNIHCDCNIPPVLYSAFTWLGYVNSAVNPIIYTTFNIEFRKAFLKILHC

[3] = molecular target: T2, 5-HT1A receptor binding sites (Homo sapiens, UniProt P08908); details: background statement, U.S. Pat. No. 5,010,078
T2 sequence (P08908 1-422): T1 sequence (P08908 1-422)

Row | affinity for the D2-receptor binding site [2] | affinity for the 5-HT1A receptor binding site [3] | selectivity at the 5-HT1A and 5-HT2 versus D2 receptor binding sites [3] | SMILES | therapeutic index [1] | affinity to 5HT1a-receptors (5HT1a-receptors)
1 | – | – | – | Cl.O=c1c(CO)coc2cc(OCCCN3CCC(c4noc5cc(F)ccc45)CC3)ccc12 [abaperidone] | high therapeutic index | high affinity
2 | high affinity | high affinity | demonstrated selectivity | O=C(NCCN1CCN(c2ncccn2)CC1)[C@]12C[C@H]3C[C@@H](C[C@H](C3)C1)C2 [adatanserin] | – | –
